ChEMBL document CHEMBL4673222, “Discovery of a Bioactive Inhibitor with a New Scaffold for Cystathionine γ-Lyase” (J Med Chem, 2019)
Each block holds one compound with its values, some of them ahead of it. Calls of active or inactive are those of the source. The rule behind the calls is not given here.

What was measured:
[1] = target: T1, Cystathionine gamma-lyase (Homo sapiens, UniProt P32929); experiment: Inhibition of human CSE using L-Cys as the substrate by tandem well based HTS assay
[2] = target: T1, Cystathionine gamma-lyase; experiment: Non-competitive inhibition of human CSE using varying levels of PLP and fixed L-Cys as substrate
[3] = target: T1, Cystathionine gamma-lyase; experiment: Competitive inhibition of human CSE using varying levels of L-Cys as substrate and fixed PLP levels
Homo sapiens [4] = organism: Homo sapiens; experiment: Selectivity index, ratio of IC50 for human CBS to IC50 for human DDC
[5] = target: Cystathionine gamma-lyase (Mus musculus) (UniProt Q8VCN5); experiment: Inhibition of CSE in mouse RAW264.7 cells assessed as reduction in amount of released H2S level at 20 to 50 uM by lead acetate method; type: cell-based; conditions: dose 20-50 µM
Sequence of Cystathionine gamma-lyase (Mus musculus) (Q8VCN5 whole entry): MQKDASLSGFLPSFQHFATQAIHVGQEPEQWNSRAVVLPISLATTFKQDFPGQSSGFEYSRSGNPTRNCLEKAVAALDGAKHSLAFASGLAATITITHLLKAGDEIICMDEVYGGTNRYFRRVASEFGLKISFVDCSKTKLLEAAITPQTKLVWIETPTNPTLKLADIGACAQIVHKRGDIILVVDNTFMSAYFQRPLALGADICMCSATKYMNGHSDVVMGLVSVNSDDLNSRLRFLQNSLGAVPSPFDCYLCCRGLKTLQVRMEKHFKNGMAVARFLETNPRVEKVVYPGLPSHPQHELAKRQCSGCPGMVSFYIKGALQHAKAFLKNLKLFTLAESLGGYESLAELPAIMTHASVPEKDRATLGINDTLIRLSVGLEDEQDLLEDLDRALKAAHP

HEK-293T = experiment: Toxicity in HEK293T cells assessed as cell viability up to 100 uM incubated for 12 to 24 hrs by CellTiter96 aqueous one solution cell proliferation assay; type: cell-based; conditions: human, time 12-24 hrs
[6] = target: T1, Cystathionine gamma-lyase; experiment: Inhibition of human CSE using H-Cys as the substrate by tandem well based HTS assay
[7] = tested on: Cystathionine gamma-lyase (Homo sapiens), P32929 [R119K]; experiment: Inhibition of human CSE R119K mutant expressed in HEK293T cells assessed as reduction in H2S contents at 200 to 500 uM by lead acetate assay; type: cell-based; conditions: dose 200-500 µM
Sequence of Cystathionine gamma-lyase (Homo sapiens), P32929 [R119K] (P32929 whole entry R119K): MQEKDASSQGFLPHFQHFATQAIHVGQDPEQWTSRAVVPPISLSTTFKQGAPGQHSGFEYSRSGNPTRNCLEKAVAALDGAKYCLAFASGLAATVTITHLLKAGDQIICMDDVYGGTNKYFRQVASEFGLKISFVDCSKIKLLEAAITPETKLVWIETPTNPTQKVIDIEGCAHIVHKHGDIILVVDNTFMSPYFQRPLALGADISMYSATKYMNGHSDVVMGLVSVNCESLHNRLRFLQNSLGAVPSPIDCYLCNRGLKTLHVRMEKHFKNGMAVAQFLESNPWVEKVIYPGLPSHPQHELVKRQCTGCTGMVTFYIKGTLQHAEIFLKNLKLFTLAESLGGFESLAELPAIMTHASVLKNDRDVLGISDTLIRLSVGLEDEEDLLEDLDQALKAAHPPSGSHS

Homo sapiens [8] = organism: Homo sapiens; experiment: Selectivity index, ratio of IC50 for human CSE Y114A mutant to IC50 for wild type human CSE
[9] = target: T1, Cystathionine gamma-lyase; experiment: Inhibition of human CSE using H-Cys as the substrate by LC/MS/MS-based assay
[10] = target: T1, Cystathionine gamma-lyase; experiment: Non-covalent reversible inhibition of human CSE
[11] = target: T1, Cystathionine gamma-lyase; experiment: Binding affinity to human CSE by ITC analysis
Homo sapiens [12] = organism: Homo sapiens; experiment: Selectivity index, ratio of Ki for human CSE Y114F mutant to Ki for wild type human CSE
[13] = target: T1, Cystathionine gamma-lyase; experiment: Inhibition of wild type human CSE expressed in HEK293T cells assessed as reduction in H2S contents; type: cell-based
Homo sapiens [14] = organism: Homo sapiens; experiment: Selectivity index, ratio of IC50 for human CSE R119K mutant expressed in HEK293T cells to IC50 for wild type human CSE expressed in HEK293T cells; type: cell-based
Rattus norvegicus [15] = experiment: Inhibition of CSE in Sprague-Dawley rat model of hemorrhagic shock assessed as increase in plasma H-cys level at 50 mg/kg, ip after 45 mins by ELISA; type: functional, organism-based
Homo sapiens [16] = organism: Homo sapiens; experiment: Selectivity index, ratio of IC50 for human CSE R119K mutant to IC50 for wild type human CSE
Homo sapiens [17] = organism: Homo sapiens; experiment: Selectivity index, ratio of IC50 for human CSE R119A mutant to IC50 for wild type human CSE
[18] = target: Cystathionine gamma-lyase (Homo sapiens, UniProt P32929, R119A); experiment: Inhibition of human CSE R119A mutant expressed in HEK293T cells assessed as reduction in H2S contents; type: cell-based
Sequence of Cystathionine gamma-lyase (Homo sapiens, UniProt P32929, R119A) (P32929 whole entry R119A): as the sequence (P32929 whole entry R119K) above, with K119A counted along it

[19] = target: Cystathionine gamma-lyase (Mus musculus) (UniProt Q8VCN5); experiment: (§1) Inhibition of CSE in mouse RAW264.7 cells assessed as reduction in endogenous H2S level by AzMC probe based fluorescence assay; type: cell-based
[20] = target: Cystathionine gamma-lyase (Mus musculus, UniProt Q8VCN5); experiment: as §1; type: cell-based
Sequence of Cystathionine gamma-lyase (Mus musculus, UniProt Q8VCN5) (Q8VCN5 whole entry): as the sequence (Q8VCN5 whole entry) above

[21] = target: T1, Cystathionine gamma-lyase; experiment: Inhibition of human CSE expressed in mouse RAW264.7 cells assessed as reduction in amount of released H2S level at 20 to 50 uM by lead acetate method; type: cell-based; conditions: dose 20-50 µM
[22] = Binding affinity to H2S assessed as absorbing of released H2S up to 100 uM in presence of NaHS as H2S donor; conditions: dose microM <=100
Homo sapiens [23] = organism: Homo sapiens; experiment: Selectivity index, ratio of IC50 for human CSE R119A mutant expressed in HEK293T cells to IC50 for wild type human CSE expressed in HEK293T cells; type: cell-based
Homo sapiens [24] = organism: Homo sapiens; experiment: Selectivity index, ratio of Ki for human CSE R119K mutant to Ki for wild type human CSE
Homo sapiens [25] = organism: Homo sapiens; experiment: Selectivity index, ratio of IC50 for human CSE R62A mutant to IC50 for wild type human CSE
[26] = target: T1, Cystathionine gamma-lyase; experiment: Effect on PLP interaction with human CSE assessed as effect on spectra of CSE-bound PLP
[27] = target: T1, Cystathionine gamma-lyase; experiment: Inhibition of human CSE by methylene blue method
[28] = tested on: Cystathionine gamma-lyase (Homo sapiens), P32929 [Y114F]; experiment: Inhibition of human CSE Y114F mutant expressed in HEK293T cells assessed as reduction in H2S contents at 200 to 500 uM by lead acetate assay; type: cell-based; conditions: dose 200-500 µM
Sequence of Cystathionine gamma-lyase (Homo sapiens), P32929 [Y114F] (P32929 whole entry Y114F): as the sequence (P32929 whole entry R119K) above, with Y114F, K119R counted along it

Homo sapiens [29] = organism: Homo sapiens; experiment: Selectivity index, ratio of Ki for human CSE R119A mutant to Ki for wild type human CSE
[30] = target: Cystathionine gamma-lyase (Mus musculus) (UniProt Q8VCN5); experiment: Inhibition of CSE in mouse RAW264.7 cells assessed as increase in levels of cellular H-cys level at 1 to 500 uM by ELISA; type: cell-based; conditions: dose 1-500 µM
[31] = target: T1, Cystathionine gamma-lyase; experiment: Inhibition of human CSE using L-Cys as the substrate in presence of 0.025% Triton X-100 by tandem well based HTS assay
Homo sapiens [32] = organism: Homo sapiens; experiment: Selectivity index, ratio of IC50 for human CSE Y114F mutant to IC50 for wild type human CSE
[33] = tested on: Cystathionine gamma-lyase (Homo sapiens), P32929 [R119A]; experiment: Inhibition of human CSE R119A mutant expressed in HEK293T cells assessed as reduction in H2S contents at 200 to 500 uM by lead acetate assay; type: cell-based; conditions: dose 200-500 µM
Sequence of Cystathionine gamma-lyase (Homo sapiens), P32929 [R119A] (P32929 whole entry R119A): as the sequence (P32929 whole entry R119K) above, with K119A counted along it

[34] = target: T2, Cystathionine beta-synthase (Homo sapiens, UniProt P35520); experiment: Inhibition of human CBS by methylene blue method
T2 sequence (P35520 whole entry): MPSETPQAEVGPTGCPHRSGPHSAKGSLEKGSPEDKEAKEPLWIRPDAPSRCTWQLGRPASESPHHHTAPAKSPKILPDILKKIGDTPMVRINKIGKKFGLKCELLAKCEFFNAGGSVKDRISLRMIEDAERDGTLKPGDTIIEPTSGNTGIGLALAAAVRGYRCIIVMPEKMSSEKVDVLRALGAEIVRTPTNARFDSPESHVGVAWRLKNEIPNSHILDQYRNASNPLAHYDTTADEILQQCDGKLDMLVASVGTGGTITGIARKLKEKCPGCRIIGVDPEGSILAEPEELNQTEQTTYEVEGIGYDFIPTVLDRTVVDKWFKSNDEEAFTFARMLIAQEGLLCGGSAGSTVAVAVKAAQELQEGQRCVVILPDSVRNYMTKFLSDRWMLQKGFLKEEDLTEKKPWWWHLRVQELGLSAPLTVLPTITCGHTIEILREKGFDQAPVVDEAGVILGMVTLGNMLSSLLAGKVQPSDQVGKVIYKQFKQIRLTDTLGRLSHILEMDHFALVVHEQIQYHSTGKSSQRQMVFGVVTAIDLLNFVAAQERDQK

[35] = target: T2, Cystathionine beta-synthase; experiment: Inhibition of wild type human CBS expressed in HEK293T cells assessed as reduction in H2S contents; type: cell-based
RAW264.7 = experiment: Toxicity in mouse RAW264.7 cells assessed as cell viability up to 100 uM incubated for 12 to 24 hrs by CellTiter96 aqueous one solution cell proliferation assay; type: cell-based; conditions: time 12-24 hrs
[36] = target: T2, Cystathionine beta-synthase; experiment: Inhibition of CBS (unknown origin) by methylene blue method
Rattus norvegicus [37] = experiment: Inhibition of CSE in Sprague-Dawley rat model of hemorrhagic shock assessed as reduction in plasma H2S level at 50 mg/kg, ip after 45 mins by methylene blue dye based method; type: functional, organism-based
Rattus norvegicus [38] = experiment: Reversal of hypotension in Sprague-Dawley rat model of hemorrhagic shock assessed as mean artery pressure level at 50 mg/kg, ip after 45 mins (reference value: 35.8 mmHg); type: functional; conditions: 0.75 h
[39] = target: Cystathionine gamma-lyase (Homo sapiens, UniProt P32929, Y114F); experiment: Inhibition of human CSE Y114F mutant expressed in HEK293T cells assessed as reduction in H2S contents; type: cell-based
Sequence of Cystathionine gamma-lyase (Homo sapiens, UniProt P32929, Y114F) (P32929 whole entry Y114F): as the sequence (P32929 whole entry R119K) above, with Y114F, K119R counted along it

Homo sapiens [40] = organism: Homo sapiens; experiment: Selectivity index, ratio of IC50 for human CBS to IC50 for human CSE
Homo sapiens [41] = organism: Homo sapiens; experiment: Selectivity index, ratio of IC50 for human CSE Y114F mutant expressed in HEK293T cells to IC50 for wild type human CSE expressed in HEK293T cells; type: cell-based
[42] = target: T2, Cystathionine beta-synthase; experiment: Inhibition of CBS (unknown origin) by AzMC based fluorescence assay
[43] = target: Cystathionine gamma-lyase (Homo sapiens, UniProt P32929, R119K); experiment: Inhibition of human CSE R119K mutant expressed in HEK293T cells assessed as reduction in H2S contents; type: cell-based
Sequence of Cystathionine gamma-lyase (Homo sapiens, UniProt P32929, R119K) (P32929 whole entry R119K): as the sequence (P32929 whole entry R119K) above

[44] = target: Cystathionine gamma-lyase (Mus musculus) (UniProt Q8VCN5); experiment: Potency index, ratio of inhibition activity of PAG to test compound for inhibition of CSE in mouse RAW264.7 cells assessed as reduction in amount of released H2S level by lead acetate method; type: cell-based
[45] = target: T1, Cystathionine gamma-lyase; experiment: Inhibition of human CSE expressed in HEK293T cells assessed as reduction in H2S contents at 20 to 50 uM by lead acetate assay; type: cell-based; conditions: dose 20-50 µM
[46] = target: T1, Cystathionine gamma-lyase; experiment: Inhibition of human CSE using L-Cys as the substrate in presence of 0.01% Triton X-100 by tandem well based HTS assay
[47] = target: Cystathionine gamma-lyase (Mus musculus) (UniProt Q8VCN5); experiment: Inhibition of CSE in mouse RAW264.7 cells assessed as reduction in amount of released H2S level at >= 200 uM by lead acetate method; type: cell-based; conditions: dose microM >=200
[48] = target: T1, Cystathionine gamma-lyase; experiment: Inhibition of human CSE expressed in mouse RAW264.7 cells assessed as reduction in amount of released H2S level at >=200 uM by lead acetate method; type: cell-based; conditions: dose microM >=200

T1 sequence (P32929 whole entry): as the sequence (P32929 whole entry R119K) above, with K119R counted along it

Compound: O=C(O)c1ccccc1O [SALICYLIC ACID]
IC50 [1]: > 200 µM

IC50 [1]: < 50 µM
Compound: O=C1C(Cl)=C(N2CCN(C3=C(Cl)C(=O)c4ccccc4C3=O)CC2)C(=O)c2ccccc21

IC50 [1]: > 200 µM
Compound: Nc1ccc(O)c(C(=O)O)c1 [MESALAMINE]

IC50 [1]: < 50 µM
Compound: O=[N+]([O-])c1ccc(Sc2cccc[n+]2[O-])c2nonc12

alphaKi [2]: 4.2 µM | Ki [3]: 0.6 µM | Ratio IC50 (Homo sapiens [4]): 143 | inhibition [5]: Active | IC50 [6]: 1.7 µM | inhibition [7]: inactive | Ratio IC50 (Homo sapiens [8]): > 10 | IC50 [9]: 3.3 µM | inhibition [9]: Dose-dependent effect | inhibition [10]: Active | Kd [11]: 3.4 µM | Ratio Ki (Homo sapiens [12]): 44.5 | IC50 [13]: 34.7 µM | inhibition [13]: Dose-dependent effect | Ratio IC50 (Homo sapiens [16]): 26 | Ratio IC50 (Homo sapiens [17]): 32 | IC50 [18]: 371 µM | inhibition [19]: Dose-dependent effect | IC50 [20]: 43.2 µM | inhibition [21]: Active | Activity [22]: inactive | Ratio Ki (Homo sapiens [24]): 40.5 | Ratio IC50 (Homo sapiens [25]): > 10 | Activity [26]: inactive | IC50 [27]: 2.6 µM | IC50 [1]: 0.6 µM | inhibition [28]: inactive | Ratio Ki (Homo sapiens [29]): 52 | inhibition [30]: Active | IC50 [31]: 1.8 µM | Ratio IC50 (Homo sapiens [32]): 29.6 | inhibition [33]: inactive | IC50 [34]: 54.2 µM | IC50 [35]: > 650 µM | IC50 [36]: 20 µM | IC50 [39]: 283 µM | Ratio IC50 (Homo sapiens [40]): 137 | IC50 [42]: 3 µM | IC50 [43]: 245 µM | Ratio [44]: 8 | inhibition [45]: Active | IC50 [46]: 1.8 µM
Compound: O=C(O)C1=CC(=C(c2ccc(O)c(C(=O)O)c2)c2ccc(O)c(C(=O)O)c2)C=CC1=O [AURINTRICARBOXYLIC ACID]
Activity (HEK-293T): Non-Toxic | Ratio IC50 (Homo sapiens [14]): 6 | inhibition (Rattus norvegicus [15]): Active | Ratio IC50 (Homo sapiens [23]): 6 | Activity (RAW264.7): Non-Toxic | inhibition (Rattus norvegicus [37]): Active | Activity (Rattus norvegicus [38]): 65 mmHg | Ratio IC50 (Homo sapiens [41]): 6

IC50 [1]: < 50 µM
Compound: NC1=CC(=O)c2cccnc2C1=O

IC50 [1]: > 200 µM
Compound: O=C(O)c1cc(/N=N/c2ccc(O)c(C(=O)O)c2)ccc1O [OLSALAZINE]

IC50 [1]: > 200 µM
Compound: O=C(O)C1=C/C(=C(\c2ccccc2)c2cc(C(=O)O)c(O)c3ccccc23)c2ccccc2C1=O

IC50 [1]: < 50 µM
Compound: Nc1ccc(Cc2ccc(NC3C(=O)c4ccccc4C(=O)C3Cl)cc2)cc1 (stereo not given)

IC50 [1]: < 50 µM
Compound: Cc1ccc([S+]([O-])c2ccc([N+](=O)[O-])c3nonc23)cc1 (stereo not given)

IC50 [1]: 155 µM
Compound: CC1=C/C(=C(\c2cc(C)c(O)c(C(=O)O)c2)c2c(Cl)cccc2Cl)C=C(C(=O)O)C1=O

inhibition [47]: Active | IC50 [20]: 371 µM | inhibition [48]: Active
Compound: C#CCC(N)C(=O)O (racemic)

IC50 [1]: < 50 µM
Compound: NC1=C(Cl)C(=O)c2ncccc2C1=O

IC50 [1]: < 50 µM
Compound: O=CN/C=C\c1cc(O)ccc1O
